Assay results taken from ChEMBL document CHEMBL4376806, “Antibiotic Adjuvants: Make Antibiotics Great Again!” (2019).

How the values were obtained:
Format in all cases: functional
[1] = system: Escherichia coli; assay: Potentiation of cefepime-induced antibacterial activity against Escherichia coli AG100 assessed as cefepime MIC at 0.4 ug/ml after 18 hrs (reference value: 0.5 ug/ml); conditions: AG100, 18 h
[2] = system: Escherichia coli; assay: Potentiation of tetracycline-induced antibacterial activity against Escherichia coli AG100 assessed as tetracycline MIC at 0.4 ug/ml after 18 hrs (reference value: 2 ug/ml); conditions: AG100, 18 h
[3] = system: Klebsiella aerogenes; assay: Potentiation of cefepime-induced antibacterial activity against Enterobacter aerogenes ATCC 13048 assessed as cefepime MIC at 1.6 ug/ml after 18 hrs (reference value: 0.25 ug/ml); conditions: ATCC 13048, 18 h
[4] = system: Klebsiella aerogenes; assay: Potentiation of tetracycline-induced antibacterial activity against Enterobacter aerogenes ATCC 13048 assessed as tetracycline MIC at 1.6 ug/ml after 18 hrs (reference value: 2 ug/ml); conditions: ATCC 13048, 18 h
[5] = system: Pseudomonas aeruginosa; assay: Potentiation of ciprofloxacin-induced antibacterial activity against Pseudomonas aeruginosa PAO1 assessed as ciprofloxacin MIC at 3.2 ug/ml after 18 hrs (reference value: 16 ug/ml); conditions: PAO1, 18 h
[6] = system: Escherichia coli; assay: Potentiation of chloramphenicol-induced antibacterial activity against Escherichia coli AG100 assessed as chloramphenicol MIC at 0.4 ug/ml after 18 hrs (reference value: 8 ug/ml); conditions: AG100, 18 h
[7] = system: Klebsiella aerogenes; assay: Potentiation of ciprofloxacin-induced antibacterial activity against Enterobacter aerogenes ATCC 13048 assessed as ciprofloxacin MIC at 1.6 ug/ml after 18 hrs (reference value: 0.5 ug/ml); conditions: ATCC 13048, 18 h
[8] = system: Pseudomonas aeruginosa; assay: Potentiation of erythromycin-induced antibacterial activity against Pseudomonas aeruginosa PAO1 assessed as erythromycin MIC at 3.2 ug/ml after 18 hrs (reference value: 512 ug/ml); conditions: PAO1, 18 h
[9] = system: Klebsiella aerogenes; assay: Potentiation of chloramphenicol-induced antibacterial activity against Enterobacter aerogenes ATCC 13048 assessed as chloramphenicol MIC at 1.6 ug/ml after 18 hrs (reference value: 4 ug/ml); conditions: ATCC 13048, 18 h
[10] = system: Escherichia coli; assay: Potentiation of erythromycin-induced antibacterial activity against Escherichia coli AG100 assessed as erythromycin MIC at 0.4 ug/ml after 18 hrs (reference value: 512 ug/ml); conditions: AG100, 18 h
[11] = system: Pseudomonas aeruginosa; assay: Potentiation of cefepime-induced antibacterial activity against Pseudomonas aeruginosa PAO1 assessed as cefepime MIC at 3.2 ug/ml after 18 hrs (reference value: 8 ug/ml); conditions: PAO1, 18 h
[12] = system: Klebsiella aerogenes; assay: Potentiation of erythromycin-induced antibacterial activity against Enterobacter aerogenes ATCC 13048 assessed as erythromycin MIC at 1.6 ug/ml after 18 hrs (reference value: 512 ug/ml); conditions: ATCC 13048, 18 h
[13] = system: Pseudomonas aeruginosa; assay: Potentiation of tetracycline-induced antibacterial activity against Pseudomonas aeruginosa PAO1 assessed as tetracycline MIC at 3.2 ug/ml after 18 hrs (reference value: 16 ug/ml); conditions: PAO1, 18 h
[14] = system: Escherichia coli; assay: Potentiation of ciprofloxacin-induced antibacterial activity against Escherichia coli AG100 assessed as ciprofloxacin MIC at 0.4 ug/ml after 18 hrs (reference value: 0.25 ug/ml); conditions: AG100, 18 h
[15] = system: Pseudomonas aeruginosa; assay: Potentiation of chloramphenicol-induced antibacterial activity against Pseudomonas aeruginosa PAO1 assessed as chloramphenicol MIC at 3.2 ug/ml after 18 hrs (reference value: 512 ug/ml); conditions: PAO1, 18 h
[16] = system: Klebsiella pneumoniae; assay: Potentiation of doxycycline-induced antibacterial activity against Klebsiella pneumoniae KPC2 assessed as doxycycline MIC at 2.5 uM after 18 hrs (reference value: 10 ug/ml); conditions: KPC2, 18 h
[17] = system: Klebsiella aerogenes; assay: Potentiation of doxycycline-induced antibacterial activity against Enterobacter aerogenes EA289 assessed as doxycycline MIC at 2.5 uM after 18 hrs (reference value: 40 ug/ml); conditions: EA289, 18 h
[18] = system: Pseudomonas aeruginosa; assay: Potentiation of doxycycline-induced antibacterial activity against Pseudomonas aeruginosa PAO1 assessed as doxycycline MIC at 2.5 uM after 18 hrs (reference value: 20 ug/ml); conditions: PAO1, 18 h
[19] = system: Pseudomonas aeruginosa; assay: Potentiation of doxycycline-induced antibacterial activity against Pseudomonas aeruginosa PAO1 assessed as doxycycline MIC at 1.25 uM after 18 hrs (reference value: 20 ug/ml); conditions: PAO1, 18 h
[20] = system: Klebsiella aerogenes; assay: Potentiation of doxycycline-induced antibacterial activity against Enterobacter aerogenes EA289 assessed as doxycycline MIC at 5 uM after 18 hrs (reference value: 40 ug/ml); conditions: EA289, 18 h
[21] = system: Pseudomonas aeruginosa; assay: Potentiation of doxycycline-induced antibacterial activity against Pseudomonas aeruginosa PAO1 assessed as doxycycline MIC at 1.22 ug/ml by broth micro-dilution method (reference value: 32 ug/ml)
[22] = system: Pseudomonas aeruginosa; assay: Synergistic antibacterial activity against Pseudomonas aeruginosa assessed as fractional inhibitory concentration index in presence of doxycycline after 18 hrs by checkerboard assay
[23] = system: Escherichia coli; assay: Potentiation of novobiocin-induced antibacterial activity against Escherichia coli W3110 assessed as novobiocin MIC at 8 ug/ml after 20 hrs by liquid microdilution method (reference value: 128 ug/ml); conditions: K-12 substr. W3110, 20 h
[24] = system: Escherichia coli; assay: Potentiation of erythromycin-induced antibacterial activity against Escherichia coli W3110 assessed as erythromycin MIC at 8 ug/ml after 20 hrs by liquid microdilution method (reference value: 64 ug/ml); conditions: K-12 substr. W3110, 20 h
[25] = system: Klebsiella aerogenes; assay: Potentiation of doxycycline-induced antibacterial activity against Enterobacter aerogenes EA289 assessed as doxycycline MIC at 2 ug/ml after 24 hrs by broth microdilution method (reference value: 40 ug/ml); conditions: EA289, 24 h
[26] = system: Pseudomonas aeruginosa; assay: Potentiation of doxycycline-induced antibacterial activity against Pseudomonas aeruginosa PAO1 assessed as doxycycline MIC at 2 ug/ml after 24 hrs by broth microdilution method (reference value: 16 ug/ml); conditions: PAO1, 24 h

SMILES: CC(C)[C@@H](CC[C@@H](C)[C@H]1CC[C@H]2[C@@H]3[C@H](O)C[C@H]4C[C@@H](NCCCNCCCCN)CC[C@]4(C)[C@H]3CC[C@]12C)OS(=O)(=O)O [SQUALAMINE]
- MIC [1]: 0.06 µg/mL
- MIC [2]: 0.125 µg/mL
- MIC [3]: 0.03 µg/mL
- MIC [4]: 0.25 µg/mL
- MIC [5]: < 1 µg/mL
- MIC [6]: 0.5 µg/mL
- MIC [7]: 0.015 µg/mL
- MIC [8]: 256 µg/mL
- MIC [9]: 0.25 µg/mL
- MIC [10]: 256 µg/mL
- MIC [11]: 1 µg/mL
- MIC [12]: 128 µg/mL
- MIC [13]: 4 µg/mL
- MIC [14]: 0.03 µg/mL
- MIC [15]: 16 µg/mL

SMILES: Cl.Cl.Cl.NCCCNCCCNC1CCCCCCCCCCCCCC1
- MIC [16]: 2 µg/mL
- MIC [17]: 2 µg/mL
- MIC [18]: 2 µg/mL

SMILES: Cl.Cl.Cl.NCCCCNCCCCNC1CCCCCCCCCCCCCC1
- MIC [16]: 2 µg/mL
- MIC [19]: 2 µg/mL
- MIC [20]: 2 µg/mL

SMILES: CC(C)=C/C=C\C(C)=C/CC/C(C)=C/CNCCCNCCCCNCCCN.Cl.Cl.Cl.Cl
- MIC [21]: 2 µg/mL
- fractional inhibitory concentration index (FICI) [22]: 0.09

SMILES: COc1ccccc1CNCCCCCCNCCCCCCCCNCCCCCCNCc1ccccc1OC [METHOCTRAMINE]
- MIC [23]: 16 µg/mL
- MIC [24]: 16 µg/mL

SMILES: CC(C)OC(=O)CC[C@@H](C)[C@H]1CC[C@H]2[C@@H]3CC[C@H]4C[C@@H](NCCCNCCCNCCCCNCCCN)CC[C@]4(C)[C@H]3C[C@H](O)[C@]12C
- MIC [25]: 0.5 µg/mL
- MIC [26]: 2 µg/mL
